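How tested: cells in 96-well plates exposed to compound for 48 hours at five concentrations. GI50: concentration for 50% inhibition of growth. TGI: total growth inhibition.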

Common to all, as to experiment: NCI tumour cell line growth inhibition, 48 h
The test system of test [1] is A498 renal.
The test system of test [2] is CAKI-1 renal.
The test system of test [3] is CCRF-CEM leukemia.
In test [4] the test system is COLO 205 colon.
Test [5] concerns HL-60(TB) leukemia.
Test [6] has as its system NCI-H23 lung.
Test [7] deals with OVCAR-3 ovarian.
The test system of test [8] is PC-3 prostate.
The subject of test [9] is SK-MEL-2 melanoma.
Test [10] has as its system SW-620 colon.

In the case of `Cn1ccnc1C(=O)/C=C/c1ccc(C(=O)Nc2ccccc2O)cc1`, the GI50 in test [1] is 2.07 µM; in [2], 1.65 µM; in test [3], 1.13 µM; in test [4] it was 2.51 µM; in [5] it was 2.13 µM; in test [6], 2.91 µM. The GI50 in test [7] is 2.32 µM; in [8], 1.89 µM; in test [9] it was 5.9 µM; in [10] it was 1.62 µM. In addition, the TGI was found to be 6.18 µM in test [1]; 4.03 µM in [2]; 8.25 µM in [3]; 5.15 µM in [4]; 5.73 µM in test [5]; 9.67 µM in [6]. For the same compound, the TGI was 6.37 µM in test [7], 4.8 µM in [8], 21.8 µM in [9] and 4.12 µM in test [10].
Turning to `c1ccc2c(-c3nc4ccccc4[nH]3)cccc2c1`, the GI50 is 1.11 µM in test [1]; 3.18 µM in [2]; 2.54 µM in [3]; 3.48 µM in test [4]; 2.78 µM in test [5]; 4.2 µM in [6]. Moreover, the GI50 in test [7] was 2.17 µM; in test [8], 3.88 µM; in test [9], 2.15 µM; in test [10], 1.91 µM. In addition, the TGI in test [1] was 6.52 µM; in test [2], above 100 µM; in test [3] it was 7.81 µM; in test [4] it was 11.8 µM; in test [5], 14.8 µM; in [6], above 100 µM. Further, the TGI was 6.89 µM in [7], above 100 µM in test [8], 8.68 µM in test [9] and 53.8 µM in test [10].
`Cc1ccc(NSc2ccccc2[N+](=O)[O-])cc1`: the GI50 in [1] was 0.186 µM; in test [2] it was 1.36 µM; in test [3], 0.85 µM; in test [4], 0.149 µM; in test [5], 0.368 µM; in test [6], 1.58 µM. Also, the GI50 in test [7] is 0.503 µM; in test [8], 1.29 µM; in test [9], 1.17 µM; in test [10] it was 0.137 µM. In addition, the TGI in test [1] was 3.75 µM; in test [2], 25.3 µM; in [3], above 52.2 µM; in test [4] it was 3.44 µM; in test [5], 14.5 µM; in [6], 22.6 µM. The TGI in [7] came out at 7.4 µM; in [8] it was 16.6 µM; in test [9] it was 21.9 µM; in [10], 16.2 µM.
`N#Cc1c(NC(=O)c2cccc3ccccc23)sc2c1CCCC2`: the GI50 was 0.0171 µM in [1]; 0.0637 µM in [2]; 0.0422 µM in [3]; 0.0723 µM in test [4]; 0.0545 µM in test [5]; 0.0874 µM in [6]. Moreover, the GI50 in [7] is 0.0417 µM; in test [8], 0.079 µM; in test [9] it was 0.137 µM; in test [10], 0.0245 µM. For the same compound, the TGI in test [1] was 1.83 µM; in test [2], above 25 µM; in test [3], above 25 µM; in [4], 0.193 µM; in test [6] it was above 25 µM; in test [7], 0.107 µM. In addition, the TGI in test [8], in test [9] and in test [10] was above 25 µM throughout.
As to `CN(C)c1ccc(/C=C/c2ccnc3ccccc23)cc1N`, the TGI in [1] was 22.3 µM; in test [3], above 100 µM; in test [4] it was 19.6 µM; in [5] it was 13.9 µM; in [6], 21.8 µM; in test [7] it was 10.2 µM. The TGI in test [8] turned out to be 22 µM; in test [9], 21.3 µM; in test [10], 33.3 µM.
`CN1C(=O)c2cc([N+](=O)[O-])ccc2[C@H]2C(=O)c3cc4c(cc3[C@H]21)OCO4`: the GI50 in [1] was 0.257 µM; in [2] it was below 0.01 µM; in [4], 0.225 µM; in test [5], 0.215 µM; in test [6], 0.21 µM; in test [7] it was 0.0751 µM. Further, the GI50 was 0.521 µM in test [8], 1.91 µM in test [9] and 0.0481 µM in test [10]. Besides, the TGI was 0.528 µM in test [1]; 0.228 µM in test [2]; above 61.2 µM in test [4]; above 100 µM in test [5]; 0.796 µM in test [6]; 0.455 µM in test [7]. The TGI in test [8] is 63 µM; in test [9], above 45.8 µM; in [10] it was above 100 µM.
Take `COc1cc2c3c(n(CCCNC(=O)OCC4c5ccccc5-c5ccccc54)c(=O)c2cc1OC)-c1cc2c(cc1C3=O)OCO2`: the GI50 in test [1] is 24.9 µM; in test [2], 4.05 µM; in test [4], above 100 µM; in test [5], above 81.2 µM; in test [6], above 64.1 µM; in test [7] it was above 100 µM. The values for the GI50 in test [8], in test [9] and in test [10] were above 100 µM, 45.5 µM and above 100 µM, respectively. Further, the TGI in test [1], in test [2], in test [4], in test [5], in test [6] and in test [7] was above 100 µM throughout. Moreover, the TGI in test [8], in test [9] and in [10] was above 100 µM throughout.
Turning to `COc1cc(-n2cc(-c3ccc(F)cc3)[nH]c2=S)cc(OC)c1OC`, the GI50 in [2] is 38.1 µM; in test [3] it was above 100 µM; in test [4] it was above 100 µM; in test [5], above 100 µM; in test [6], above 100 µM; in [7], above 100 µM. In addition, the GI50 is 80.1 µM in test [8], above 100 µM in [9] and above 100 µM in test [10]. Further, the TGI in test [2], in [3], in test [4], in test [5], in test [6] and in test [7] was above 100 µM each time. For the same compound, the TGI in [8], in test [9] and in test [10] was above 100 µM throughout.
For the compound `CC1(C)N=C(N)N=C(N)N1c1ccc(OCC(=O)N2CCOCC2)c(Cl)c1`, the GI50 is above 100 µM in [1]; 3.55 µM in test [3]; 8.8 µM in test [4]; 0.981 µM in [5]; 1.5 µM in [6]; 5.63 µM in test [7]. For the same compound, the GI50 in [8] is 0.531 µM; in test [9], above 100 µM; in [10], 0.714 µM. Moreover, the TGI in test [1], in test [3], in [4], in [5], in [6] and in [7] was above 100 µM throughout. The TGI in [8], in test [9] and in test [10] was above 100 µM throughout.
In the case of `COC(=O)c1cc2c3ccccc3n3c(=O)c4cc5cc(OC)c(N(S(=O)(=O)c6ccc(C)cc6)S(=O)(=O)c6ccc(C)cc6)cc5nc4c(n1)c23`, the GI50 in test [1] is 10.2 µM; in test [2], above 100 µM; in [4] it was above 100 µM; in [5] it was 74.7 µM; in test [6], 16.7 µM; in test [7], above 100 µM. Moreover, the GI50 in [8] and in [10] was above 100 µM throughout. In addition, the TGI was 29.6 µM in test [1]; above 100 µM in test [2]; above 100 µM in test [4]; above 100 µM in [5]; 63.2 µM in test [6]; above 100 µM in [7]. In addition, the TGI in test [8] and in test [10] was above 100 µM throughout.
For `O=C1Nc2ccccc2/C1=C/c1cn(C(=O)c2c(Cl)cccc2Cl)c2ccccc12`, the GI50 in test [1] is 1.25 µM; in test [2] it was 1.89 µM; in [3], 0.337 µM; in test [4], 7.52 µM; in test [5] it was 2.46 µM; in test [6], 4.08 µM. Besides, the GI50 in test [7] is 1.65 µM; in test [8], 2.39 µM; in test [10] it was 2.9 µM. For the same compound, the TGI in test [1] was 4.32 µM; in test [2], 5.77 µM; in test [3], 15.6 µM; in test [4], 22.2 µM; in test [5] it was 11 µM; in test [6], 17.3 µM. Moreover, the TGI worked out at 3.65 µM in test [7], 11.2 µM in test [8] and 12.5 µM in [10].
Take `COc1cc(C2CC(c3ccc(Nc4ccnc5cc(Cl)ccc45)cc3)=NN2C=O)cc(OC)c1OC` (centres undefined): the GI50 is 15.3 µM in test [1]; 5.47 µM in test [2]; 1.82 µM in test [3]; 3.73 µM in test [4]; 2.53 µM in test [5]; 20.4 µM in test [6]. Moreover, the GI50 was 1.91 µM in test [7], 11.7 µM in test [8] and 3.49 µM in test [10]. Further, the TGI was 49.5 µM in test [1]; 26.5 µM in [2]; 69.4 µM in test [3]; 70.4 µM in [4]; 7.4 µM in test [5]; above 100 µM in [6]. Moreover, the TGI in test [7] is 3.4 µM; in test [8], above 100 µM; in test [10] it was 17.7 µM.
For the compound `O=c1[nH]ccc2nc(-c3ccc(CN4CCC(c5nc(-c6ccccn6)n[nH]5)CC4)cc3)c(-c3ccccc3)cc12`, the GI50 in [1] was below 0.0345 µM; in test [3], 2.04 µM; in [4], 1.54 µM; in [5] it was 23.6 µM; in [6] it was 42.4 µM; in [7], 0.904 µM. The GI50 in test [8] was 0.153 µM; in test [9], 14.7 µM; in [10], 42.3 µM. In addition, the TGI in test [1] was 0.355 µM; in test [3], above 100 µM; in [4], above 100 µM; in test [5], above 86.7 µM; in test [6], above 100 µM; in test [7], above 66.3 µM. Besides, the TGI was above 100 µM in [8], 38 µM in test [9] and above 100 µM in test [10].
In the case of `Cc1ccc(/C=C/C(=O)c2ccc(N)cc2)c(C)c1`, the GI50 in test [1] was 13.6 µM; in [2], 1.72 µM; in test [4], 2.43 µM; in test [5], 2.89 µM; in [6], 2.19 µM; in test [8], 14.6 µM. Besides, the GI50 is 14 µM in [9] and 1.92 µM in test [10]. Further, the TGI was determined as 27.5 µM in [1]; 3.18 µM in [2]; 6.07 µM in test [4]; 11.4 µM in test [5]; 5.21 µM in [6]; 28.2 µM in test [8]. Moreover, the TGI amounted to 28.4 µM in test [9] and 3.88 µM in [10].
As for `COc1cc(C(=O)/C=C/c2c(-c3ccc(F)cc3)nc3ncccn23)cc(OC)c1OC`, the GI50 is 2.2 µM in test [1]; 4.05 µM in [3]; 3.33 µM in test [5]; 1.58 µM in test [6]; 1.4 µM in test [7]; 4.35 µM in test [8]. Moreover, in test [9], the GI50 was 2.38 µM. Further, the TGI was 7.58 µM in [1]; above 100 µM in [3]; above 100 µM in test [5]; 5.79 µM in test [6]; 3.64 µM in test [7]; above 100 µM in test [8]. Besides, in [9], the TGI came out at 6.97 µM.
Consider `CCCCCCCCCCCCSC(=NC)NC`, for which the GI50 in test [1] is 2.63 µM; in test [2], 1.92 µM; in [3] it was 2.63 µM; in [5], 1.86 µM; in test [6], 2.2 µM; in [7], 2 µM. Also, the GI50 in test [8] was 1.9 µM. Besides, the TGI was determined as 8.69 µM in test [1]; 4.8 µM in test [2]; 9.97 µM in [3]; 4.41 µM in test [5]; 4.71 µM in [6]; 4.82 µM in test [7]. Besides, in test [8], the TGI came out at 4.94 µM.

The record behind these values is PubChem BioAssay (NCI).
